Reference: ChEMBL document CHEMBL5104095, “Proteolysis targeting chimera (PROTAC) in drug discovery paradigm: Recent progress and future challenges” (Eur J Med Chem, 2021)
pEC50, pKd: −log10 of the molar value. Each block holds one compound with its values, some of them ahead of it.

Columns and labels:
[1] = test system: HeLa; experiment: PROTAC activity at VHL/PRC2 in human HeLa cells assessed as induction of PRC2 degradation incubated for 24 hrs by Western blot analysis relative to control; assay type: cell-based
[2] = PROTAC activity at VHL/PRC2 in human HeLa cells assessed as induction of PRC2 degradation incubated for 24 hrs by Western blot analysis; assay type: cell-based
[3] = target: IAP-Tyrosine-protein kinase BTK (Homo sapiens, UniProt P98170+Q06187+Q13489+Q13490); experiment: PROTAC activity at IAP/BTK in human THP-1 cells assessed as reduction in BTK level incubated for 16 hrs by immunoblot analysis; assay type: cell-based
[4] = target: von Hippel-Lindau disease tumor suppressor/Cyclin-dependent kinase 4 (Homo sapiens, UniProt P11802+P40337); experiment: PROTAC activity at VHL/CDK4 in human MM1.S cells assessed as induction of […] degradation incubated for 16 hrs by Western blot analysis; assay type: cell-based
[5] = target: von Hippel-Lindau disease tumor suppressor/Cyclin-dependent kinase 6 (Homo sapiens) (UniProt Q00534+P40337); experiment: PROTAC activity at VHL/CDK6 in human MM1.S cells assessed as induction of CDK6 degradation at 0.1 to 1 uM incubated for 16 hrs by Western blot analysis relative to control; assay type: cell-based; conditions: dose 0.1-1 µM
[6] = target: von Hippel-Lindau disease tumor suppressor/Cyclin-dependent kinase 6 (Homo sapiens, UniProt P40337+Q00534); experiment: PROTAC activity at VHL/CDK6 in human MM1.S cells assessed as induction of CDK6 degradation incubated for 16 hrs by Western blot analysis; assay type: cell-based
[7] = target: Protein cereblon-NS3 (Hepacivirus hominis, UniProt A3EZJ3+Q96SW2); experiment: PROTAC activity at CRBN/NS3 of HCV assessed as induction of NS3-eGFP-2A-mCherry degradation incubated for 4 hrs by flow cytometry
[8] = target: T1, von Hippel-Lindau disease tumor suppressor/Tyrosine-protein kinase ABL1/Breakpoint cluster region protein (Homo sapiens, UniProt P00519+P11274+P40337); experiment: PROTAC activity at VHL/BCR-Abl (unknown origin) assessed as induction of BCR-Abl degradation by cell based assay relative to control
[9] = target: T1, von Hippel-Lindau disease tumor suppressor/Tyrosine-protein kinase ABL1/Breakpoint cluster region protein; experiment: PROTAC activity at VHL/BCR-Abl (unknown origin) assessed as induction of BCR-Abl degradation by cell based assay
[10] = target: T2, Protein cereblon/Indoleamine 2,3-dioxygenase 1 (Homo sapiens, UniProt P14902+Q96SW2); experiment: PROTAC activity at CRBN/IDO1 in human HeLa cells assessed as induction of IDO1 degradation incubated for 24 hrs by immunoblot analysis relative to control; assay type: cell-based
[11] = target: T2, Protein cereblon/Indoleamine 2,3-dioxygenase 1; experiment: PROTAC activity at CRBN/IDO1 in human HeLa cells assessed as induction of IDO1 degradation incubated for 24 hrs by immunoblot analysis; assay type: cell-based
[12] = target: Protein cereblon/Peptidyl-prolyl cis-trans isomerase FKBP1A (Homo sapiens, UniProt P62942+Q96SW2); experiment: PROTAC activity at CRBN/FKBP12 in human Jurkat cells assessed as induction of FKBP12 degradation incubated for 12 hrs by Western blot analysis; assay type: cell-based
[13] = target: Protein cereblon/Tyrosine-protein kinase BTK (Homo sapiens, UniProt Q06187+Q96SW2, C481S); experiment: PROTAC activity at CRBN/BTK C481S mutant transfected in human HBL1 cells assessed as induction of BTK C481S degradation incubated for 36 hrs by Western blot analysis; assay type: cell-based
[14] = target: T3, Protein cereblon/Tyrosine-protein kinase BTK (Homo sapiens, UniProt Q06187+Q96SW2); experiment: PROTAC activity at CRBN/BTK in human MINO cells assessed as reduction in BTK level incubated for 24 hrs by Western blot analysis relative to control; assay type: cell-based
Target sequence in this assay (Q06187 2-659 limits assumed): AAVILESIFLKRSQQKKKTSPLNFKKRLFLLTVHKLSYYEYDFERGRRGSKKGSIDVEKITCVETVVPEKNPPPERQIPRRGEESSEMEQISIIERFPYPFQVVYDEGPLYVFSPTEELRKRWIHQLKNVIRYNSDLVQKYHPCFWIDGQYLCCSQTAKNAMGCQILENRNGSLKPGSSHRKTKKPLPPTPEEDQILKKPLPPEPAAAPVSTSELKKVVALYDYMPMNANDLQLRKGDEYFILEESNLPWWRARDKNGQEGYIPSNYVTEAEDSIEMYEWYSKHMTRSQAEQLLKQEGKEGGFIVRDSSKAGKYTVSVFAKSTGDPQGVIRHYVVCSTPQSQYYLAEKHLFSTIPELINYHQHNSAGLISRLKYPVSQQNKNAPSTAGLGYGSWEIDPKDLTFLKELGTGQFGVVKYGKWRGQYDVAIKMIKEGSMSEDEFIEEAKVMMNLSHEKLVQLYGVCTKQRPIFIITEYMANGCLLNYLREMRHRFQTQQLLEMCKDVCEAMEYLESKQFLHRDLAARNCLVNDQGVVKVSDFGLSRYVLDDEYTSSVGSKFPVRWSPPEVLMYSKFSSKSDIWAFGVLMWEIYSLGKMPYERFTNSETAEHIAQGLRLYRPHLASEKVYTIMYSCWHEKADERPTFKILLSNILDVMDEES
Target sequence in this assay (Q96SW2 whole entry partner): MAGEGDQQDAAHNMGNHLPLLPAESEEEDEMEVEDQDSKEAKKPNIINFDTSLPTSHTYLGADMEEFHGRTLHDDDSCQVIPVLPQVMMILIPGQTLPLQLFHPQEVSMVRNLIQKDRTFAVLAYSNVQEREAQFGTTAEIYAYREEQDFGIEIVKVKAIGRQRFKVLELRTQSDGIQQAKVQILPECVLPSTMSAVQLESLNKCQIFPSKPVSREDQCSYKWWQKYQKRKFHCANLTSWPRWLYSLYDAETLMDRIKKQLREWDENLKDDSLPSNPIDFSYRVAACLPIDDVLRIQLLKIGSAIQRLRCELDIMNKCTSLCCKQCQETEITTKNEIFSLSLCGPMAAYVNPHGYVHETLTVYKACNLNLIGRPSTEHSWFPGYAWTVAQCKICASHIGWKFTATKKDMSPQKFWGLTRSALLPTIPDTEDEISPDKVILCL

[15] = target: T3, Protein cereblon/Tyrosine-protein kinase BTK; experiment: PROTAC activity at CRBN/BTK in human MINO cells assessed as reduction in BTK level incubated for 24 hrs by Western blot analysis; assay type: cell-based
[16] = target: T4, von Hippel-Lindau disease tumor suppressor/Mitogen-activated protein kinase 14 (Homo sapiens, UniProt P40337+Q16539); experiment: PROTAC activity at VHL/p38alpha (unknown origin) assessed as dissociation constant by competitive binding assay
[17] = target: T4, von Hippel-Lindau disease tumor suppressor/Mitogen-activated protein kinase 14; experiment: PROTAC activity at VHL/p38alpha in human MDA-MB-231 cells assessed as induction of p38alpha degradation incubated for 24 hrs by Western blot analysis; assay type: cell-based
[18] = target: von Hippel-Lindau disease tumor suppressor/Mitogen-activated protein kinase 14 (Homo sapiens) (UniProt Q16539+P40337); experiment: PROTAC activity at VHL/p38alpha in human MDA-MB-231 cells assessed as induction of p38alpha degradation incubated for 24 hrs by Western blot analysis relative to control; assay type: cell-based
Chain of von Hippel-Lindau disease tumor suppressor/Mitogen-activated protein kinase 14 (Homo sapiens) (P40337 whole entry partner): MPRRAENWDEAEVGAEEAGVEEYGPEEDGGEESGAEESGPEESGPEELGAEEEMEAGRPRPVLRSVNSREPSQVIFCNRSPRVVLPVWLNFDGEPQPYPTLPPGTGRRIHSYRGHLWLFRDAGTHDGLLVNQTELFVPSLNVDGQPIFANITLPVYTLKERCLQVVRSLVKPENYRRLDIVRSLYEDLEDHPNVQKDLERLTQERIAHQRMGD
Chain of von Hippel-Lindau disease tumor suppressor/Mitogen-activated protein kinase 14 (Homo sapiens) (Q16539 2-360 limits assumed): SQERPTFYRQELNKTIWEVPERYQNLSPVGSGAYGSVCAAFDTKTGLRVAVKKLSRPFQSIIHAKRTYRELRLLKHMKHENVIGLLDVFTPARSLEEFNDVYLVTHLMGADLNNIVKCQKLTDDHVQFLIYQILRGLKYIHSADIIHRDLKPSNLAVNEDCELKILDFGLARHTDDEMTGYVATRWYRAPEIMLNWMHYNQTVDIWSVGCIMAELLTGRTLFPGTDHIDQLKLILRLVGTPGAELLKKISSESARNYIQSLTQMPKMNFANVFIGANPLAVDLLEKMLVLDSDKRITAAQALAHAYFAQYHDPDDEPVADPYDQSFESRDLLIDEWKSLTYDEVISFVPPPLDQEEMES

T4 sequence (Q16539 whole entry): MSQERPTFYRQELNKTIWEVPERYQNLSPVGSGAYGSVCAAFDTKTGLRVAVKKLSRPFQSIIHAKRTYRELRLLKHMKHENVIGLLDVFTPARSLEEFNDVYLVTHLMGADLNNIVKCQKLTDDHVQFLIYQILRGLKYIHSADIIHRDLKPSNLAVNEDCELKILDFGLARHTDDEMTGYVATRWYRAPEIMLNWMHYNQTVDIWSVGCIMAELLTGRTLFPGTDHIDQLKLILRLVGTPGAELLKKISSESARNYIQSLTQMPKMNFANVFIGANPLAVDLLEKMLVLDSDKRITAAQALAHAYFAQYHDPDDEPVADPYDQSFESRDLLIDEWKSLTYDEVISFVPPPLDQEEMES
T4 sequence (P40337 whole entry): as the sequence (P40337 whole entry partner) above
Chain of Protein cereblon-NS3 (A3EZJ3 whole entry): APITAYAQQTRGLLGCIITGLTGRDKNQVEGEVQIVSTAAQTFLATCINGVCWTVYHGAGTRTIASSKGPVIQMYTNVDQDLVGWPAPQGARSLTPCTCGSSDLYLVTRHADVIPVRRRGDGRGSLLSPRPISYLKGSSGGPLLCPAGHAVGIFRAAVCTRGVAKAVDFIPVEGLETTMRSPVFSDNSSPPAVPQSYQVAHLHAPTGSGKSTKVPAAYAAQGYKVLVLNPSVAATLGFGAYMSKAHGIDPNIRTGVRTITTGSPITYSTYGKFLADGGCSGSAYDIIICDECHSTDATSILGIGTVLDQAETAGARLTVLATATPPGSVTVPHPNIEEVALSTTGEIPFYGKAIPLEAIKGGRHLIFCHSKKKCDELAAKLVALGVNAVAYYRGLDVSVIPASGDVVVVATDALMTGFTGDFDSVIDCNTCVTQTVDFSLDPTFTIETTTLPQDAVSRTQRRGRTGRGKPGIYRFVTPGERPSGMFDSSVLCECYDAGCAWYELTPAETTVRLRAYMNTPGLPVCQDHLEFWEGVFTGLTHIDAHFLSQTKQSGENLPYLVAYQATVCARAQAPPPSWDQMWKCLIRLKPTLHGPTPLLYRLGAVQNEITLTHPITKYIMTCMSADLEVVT
Chain of Protein cereblon-NS3 (Q96SW2 whole entry): as the sequence (Q96SW2 whole entry partner) above
Chain of von Hippel-Lindau disease tumor suppressor/Cyclin-dependent kinase 6 (Homo sapiens) (P40337 whole entry, looked up): as the sequence (P40337 whole entry partner) above
Chain of von Hippel-Lindau disease tumor suppressor/Cyclin-dependent kinase 6 (Homo sapiens) (Q00534 whole entry, looked up): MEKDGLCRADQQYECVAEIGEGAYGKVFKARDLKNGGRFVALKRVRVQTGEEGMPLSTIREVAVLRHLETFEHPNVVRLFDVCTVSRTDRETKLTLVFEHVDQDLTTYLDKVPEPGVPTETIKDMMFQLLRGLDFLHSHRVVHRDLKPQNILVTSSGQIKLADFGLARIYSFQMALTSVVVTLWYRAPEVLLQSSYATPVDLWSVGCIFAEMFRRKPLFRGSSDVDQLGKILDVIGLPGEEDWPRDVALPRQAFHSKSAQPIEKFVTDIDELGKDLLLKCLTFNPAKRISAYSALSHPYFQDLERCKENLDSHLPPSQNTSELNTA
Chain of von Hippel-Lindau disease tumor suppressor/Cyclin-dependent kinase 4 (P11802 whole entry): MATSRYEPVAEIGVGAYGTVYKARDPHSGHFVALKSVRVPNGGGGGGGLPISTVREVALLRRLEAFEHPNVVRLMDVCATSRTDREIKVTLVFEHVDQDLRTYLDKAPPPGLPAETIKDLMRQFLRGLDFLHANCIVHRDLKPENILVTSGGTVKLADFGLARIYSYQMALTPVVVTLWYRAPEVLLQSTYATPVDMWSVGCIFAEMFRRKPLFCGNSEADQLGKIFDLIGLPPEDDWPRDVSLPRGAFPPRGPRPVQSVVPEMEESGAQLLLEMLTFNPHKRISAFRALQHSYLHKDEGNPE
Chain of von Hippel-Lindau disease tumor suppressor/Cyclin-dependent kinase 4 (P40337 whole entry): as the sequence (P40337 whole entry partner) above

SMILES: CN[C@@H](C)C(=O)N[C@H](C(=O)N1C[C@@H](NC(=O)COCCOCCOCCOCCN2CCN(CCCC(=O)N3CCC[C@@H](n4nc(-c5ccc(Oc6ccccc6)cc5)c5c(N)ncnc54)C3)CC2)C[C@H]1C(=O)N[C@@H]1CCCc2ccccc21)C1CCCCC1
pEC50 [3]: 6.70

SMILES: CC(=O)c1c(C)c2cnc(Nc3ccc(N4CCN(CCOCCOCCOc5cc(-c6scnc6C)ccc5CNC(=O)[C@H]5C[C@H](O)CN5C(=O)[C@@H](NC(=O)C5(F)CC5)C(C)(C)C)CC4)cn3)nc2n(C2CCCC2)c1=O
pEC50 [4]: 7.70
Emax [5]: > 95%
pEC50 [6]: 8.29

SMILES: CCC[C@H](NC(=O)[C@@H]1[C@H]2CCC[C@H]2CN1C(=O)[C@@H](NC(=O)[C@@H](NC(=O)c1cnc(C(=O)NCCCCCCNc2cccc3c2CN(C2CCC(=O)NC2=O)C3=O)cn1)C1CCCCC1)C(C)(C)C)C(=O)C(=O)NC1CC1 (stereo partly drawn)
pEC50 [7]: 6.17

SMILES: O=C1CCC(N2C(=O)c3cccc(NCCOCCOCCOCCOCCOCCOCCOCCNCCNc4nonc4/C(=N/O)Nc4ccc(F)c(Br)c4)c3C2=O)C(=O)N1 (stereo not drawn)
Emax [10]: 93%
pEC50 [11]: 5.55

SMILES: CO[C@H]1C[C@@H]2CC[C@@H](C)[C@@](O)(O2)C(=O)C(=O)N2CCCC[C@H]2C(=O)O[C@H]([C@@H](C)C[C@@H]2CC[C@@H](OCCOCc3cn(CCOCCOCCNc4cccc5c4C(=O)N(C4CCC(=O)NC4=O)C5=O)nn3)[C@H](OC)C2)CC(=O)[C@H](C)/C=C(\C)[C@@H](O)[C@H](OC)C(=O)[C@H](C)C[C@H](C)/C=C/C=C/C=C/1C (stereo partly drawn)
pEC50 [12]: > 9.52

SMILES: Nc1ncnc2c1c(-c1ccc(Oc3ccccc3)cc1)nn2[C@@H]1CCCN(C(=O)c2cn(CCOCCOCCOCCCc3cccc4c3CN(C3CCC(=O)NC3=O)C4=O)nn2)C1 (stereo partly drawn)
pEC50 [13]: 7.54

SMILES: Nc1ncnc2c1c(-c1ccc(Oc3ccccc3)cc1)nn2[C@H]1CCCN(C(=O)CCCCCCOCCOCCOCCOCCOc2cccc3c2C(=O)N(C2CCC(=O)NC2=O)C3=O)C1 (stereo partly drawn)
Emax [14]: 97%
pEC50 [15]: 8.66

More lines, main results first:

pEC50 [2]: > 6.15
SMILES: Cc1ncsc1-c1ccc(CNC(=O)[C@@H]2C[C@@H](O)CN2C(=O)[C@@H](NC(=O)CCCNC(=O)c2ccc(-c3cnc(NCc4ccco4)n4cnnc34)cc2)C(C)(C)C)cc1
Emax [1]: > 80%

Emax [8]: > 95%
pEC50 [9]: 6.47
SMILES: Cc1ncsc1-c1ccc(CNC(=O)[C@@H]2C[C@@H](O)CN2C(=O)[C@@H](NC(=O)COCCOc2ccc(-c3cc(Nc4ccc(OC(F)(F)F)cc4)ncn3)cc2)C(C)(C)C)cc1

pKd [16]: 4.96
pEC50 [17]: 6.68
Emax [18]: 91%
SMILES: COc1cc2c(Oc3ccc(NC(=O)C4(C(=O)Nc5ccc(F)cc5)CC4)cc3F)cccc2cc1OCCCOCCCOCCC(=O)N[C@H](C(=O)N1C[C@H](O)C[C@H]1C(=O)NCc1ccc(-c2scnc2C)cc1)C(C)(C)C
